Laboratory results taken from patent publication US10975068B2, “6-aminopyridin-3-yl thiazoles as modulators of RORγT” (Janssen Pharmaceutica NV, priority 2016, dated 2021).
Where two headings read alike, the source gives them in different places.

Legend:
full-length human RORγt = full-length human RORγt (Homo sapiens (Human), UniProt P51449); assay: RORγt (full-length human) reporter assay, Conditions B or C; format: cell-based; conditions: for RORγt (FL) Reporter Assay B or C, % inhibition (value marked *): marked *: footnote not given; for IC50: read-out: RORγt (FL) Reporter Assay B or C, IC50; for inhibition at 3 µM: at 3 μM compound concentration, read-out: RORγt (FL) Reporter Assay B or C, % inhibition
Sequence of full-length human RORγt (P51449 other isoform, or with tags, fused parts or gaps): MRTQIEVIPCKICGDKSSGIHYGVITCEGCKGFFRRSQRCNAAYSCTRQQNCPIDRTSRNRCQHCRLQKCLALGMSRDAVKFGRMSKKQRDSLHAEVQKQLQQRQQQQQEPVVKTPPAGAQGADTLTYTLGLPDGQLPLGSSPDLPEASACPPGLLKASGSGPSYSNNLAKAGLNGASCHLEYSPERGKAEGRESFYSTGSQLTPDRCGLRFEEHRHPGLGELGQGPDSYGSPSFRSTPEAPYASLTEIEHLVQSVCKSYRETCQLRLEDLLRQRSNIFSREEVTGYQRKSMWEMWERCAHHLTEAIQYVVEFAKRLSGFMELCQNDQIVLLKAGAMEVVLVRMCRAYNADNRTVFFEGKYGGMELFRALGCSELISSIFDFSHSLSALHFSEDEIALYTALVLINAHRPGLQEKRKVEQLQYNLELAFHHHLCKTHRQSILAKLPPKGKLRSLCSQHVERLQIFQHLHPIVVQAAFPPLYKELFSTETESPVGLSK
How it was run: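 Readout is dual luciferase: firefly (GAL4-driven) normalized to DMSO-only and saturating-reference controls, then to CMV-Renilla. Full-length human RORγt fused to GAL4-DBD was transiently expressed in HEK293T; compound exposure ran overnight (16-20 h) starting 4-6 h after transfection, final FBS 1.3%, DMSO 0.1%.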

[1] = biological target: human RORγt ligand binding domain (RORγt LBD) (Homo sapiens (Human), UniProt P51449); assay: RORγt ThermoFluor® assay (thermal shift binding); conditions: read-out: ThermoFluor® Assay, Kd
Sequence of human RORγt ligand binding domain (RORγt LBD) (P51449 other isoform, or with tags, fused parts or gaps): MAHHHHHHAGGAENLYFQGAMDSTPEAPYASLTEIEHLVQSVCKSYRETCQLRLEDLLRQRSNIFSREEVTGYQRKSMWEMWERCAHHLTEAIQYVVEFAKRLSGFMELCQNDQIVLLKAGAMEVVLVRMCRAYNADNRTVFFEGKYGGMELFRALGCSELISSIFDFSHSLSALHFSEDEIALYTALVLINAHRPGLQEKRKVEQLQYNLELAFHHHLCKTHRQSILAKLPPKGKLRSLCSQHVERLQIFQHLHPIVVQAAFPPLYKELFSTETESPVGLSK
How it was run: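 Binding was inferred from thermal stabilisation (ΔTm) of the E. coli-expressed RORγt LBD (0.065 mg/mL), monitored by 1,8-ANS (60 μM) emission at 500 nm during a 1 °C/min ramp. Buffer was Hepes 100 mM pH 7.0 with NaCl, GSH and Tween-20.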

| RORγt (FL) Reporter Assay B or C, % inhibition (value marked *) (full-length human RORγt; Conditions B or C) | IC50 (full-length human RORγt; Conditions B or C) | Kd [1] | RORγt (FL) Reporter Assay B or C, % inhibition (value marked ***) (full-length human RORγt; Conditions B or C, marked ***: footnote not given) | inhibition at 3 µM (full-length human RORγt) | IC50 (full-length human RORγt) | Compound |
| --- | --- | --- | --- | --- | --- | --- |
| 110* % | 3.9 nM | 0.26 nM | – | – | – | CCC(C)(C)Nc1cc(C(F)(F)F)c(-c2sc(C(=O)NCC(C)(C)O)nc2C(=O)N2CC(F)(F)C[C@@H]2C)cn1 [Example 103, (S)-4-(4,4-Difluoro-2-methylpyrrolidine-1-carbonyl)-N-(2-hydroxy-2-methylpropyl)-5-(6-(tert-pentylamino)-4-(trifluoromethyl)pyridin-3-yl)thiazole-2-carboxamide] |
| – | 120 nM | 9.4 nM | 94*** % | – | – | C[C@H]1CCCN1C(=O)c1nc(C(=O)NCC(C)(C)O)sc1-c1cnc(NC2(C(F)(F)F)CC2)cc1C(F)(F)F [Example 147, (S)—N-(2-Hydroxy-2-methylpropyl)-4-(2-methylpyrrolidine-1-carbonyl)-5-(4-(trifluoromethyl)-6-((1-(trifluoromethyl)cyclopropyl)amino)pyridin-3-yl)thiazole-2-carboxamide] |
| – | – | 3.4 nM | – | 91% | 32 nM | CC[C@H](Nc1cc(C(F)F)c(-c2sc(C(=O)N[C@H]3CC[C@@H]3O)nc2C(=O)N2CCC[C@@H]2C)cn1)C(F)(F)F (relative stereo) [Example 377, 5-(4-(Difluoromethyl)-6-(((S)-1,1,1-trifluorobutan-2-yl)amino)pyridin-3-yl)-N-((1S*,2S*)-2-hydroxycyclobutyl)-4-((S)-2-methylpyrrolidine-1-carbonyl)thiazole-2-carboxamide] |
| – | – | 4.5 nM | – | 108% | 36 nM | C[C@H]1CCCN1C(=O)c1nc(C(=O)N[C@@H]2CC[C@H]2O)sc1-c1cnc(NC(C)(C)C)cc1C(F)F (relative stereo) [Example 403, 5-(6-(tert-Butylamino)-4-(difluoromethyl)pyridin-3-yl)-N-(1R*,2R*)-2-hydroxycyclobutyl)-4-((S)-2-methylpyrrolidine-1-carbonyl)thiazole-2-carboxamide] |
| – | – | 43 nM | – | 102% | 150 nM | CNC(=O)c1nc(C(=O)N2CCC[C@@H]2C)c(-c2cnc(NC(C)(C)C)cc2C(F)(F)F)s1 [Example 307, (S)-5-(6-(tert-Butylamino)-4-(trifluoromethyl)pyridin-3-yl)-N-methyl-4-(2-methylpyrrolidine-1-carbonyl)thiazole-2-carboxamide] |
| 108* % | 14 nM | 0.39 nM | – | – | – | C[C@H]1CC(F)(F)CN1C(=O)c1nc(C(=O)NCC(C)(C)O)sc1-c1cnc(NC2(C(F)(F)F)CCC2)cc1C(F)(F)F [Example 100, (S)-4-(4,4-Difluoro-2-methylpyrrolidine-1-carbonyl)-N-(2-hydroxy-2-methylpropyl)-5-(4-(trifluoromethyl)-6-((1-(trifluoromethyl)cyclobutyl)amino)pyridin-3-yl)thiazole-2-carboxamide] |
| – | – | 3.5 nM | – | 102% | 5.1 nM | C[C@H](NC(=O)c1nc(C(=O)N2CCC[C@@H]2C)c(-c2cnc(NC(C)(C)C)cc2C(F)F)s1)C(C)(C)O [Example 270, 5-[6-(tert-Butylamino)-4-(difluoromethyl)-3-pyridyl]-N-[(1S)-2-hydroxy-1,2-dimethyl-propyl]-4-[(2S)-2-methylpyrrolidine-1-carbonyl]thiazole-2-carboxamide] |
| 98* % | 32 nM | 18 nM | – | – | – | C[C@H](Nc1cc(C(F)F)c(-c2sc(C(=O)N[C@H]3C[C@H](O)C3)nc2C(=O)N2CC(F)(F)C[C@@H]2C)cn1)C(F)(F)F [Example 191, 4-((S)-4,4-Difluoro-2-methylpyrrolidine-1-carbonyl)-5-(4-(difluoromethyl)-6-(((S)-1,1,1-trifluoropropan-2-yl)amino)pyridine-3-yl)-N-((1r,3S)-3-hydroxycyclobutyl)thiazole-2-carboxamide] |
| – | – | 8.1 nM | – | 103% | 24 nM | C[C@H]1CCCN1C(=O)c1nc(C(=O)N2CC(CO)C2)sc1-c1cnc(NC(C)(C)C)cc1C(F)(F)F [Example 249, [5-[6-(tert-Butylamino)-4-(trifluoromethyl)-3-pyridyl]-2-[3-(hydroxymethyl)azetidine-1-carbonyl]thiazol-4-yl]-[(2S)-2-methylpyrrolidin-1-yl]methanone] |
| 106* % | 3.6 nM | 0.34 nM | – | – | – | C[C@H]1CCCN1C(=O)c1nc(C(=O)NCC(C)(C)O)sc1-c1cnc(NC(C)(C)C2CC2)cc1C(F)(F)F [Example 56, (S)-5-(6-((2-Cyclopropylpropan-2-yl)amino)-4-(trifluoromethyl)pyridin-3-yl)-N-(2-hydroxy-2-methylpropyl)-4-(2-methylpyrrolidine-1-carbonyl)thiazole-2-carboxamide] |
| – | – | 0.7 nM | – | 112% | 14 nM | C[C@H]1CCCN1C(=O)c1nc(C(=O)NC2CS(=O)(=O)C2)sc1-c1cnc(NC(C)(C)C)cc1C(F)(F)F [Example 260, 5-[6-(tert-Butylamino)-4-(trifluoromethyl)-3-pyridyl]-N-(1,1-dioxothietan-3-yl)-4-[(2S)-2-methylpyrrolidine-1-carbonyl]thiazole-2-carboxamide] |
| 108* % | 14 nM | 1.2 nM | – | – | – | C[C@H]1CCCN1C(=O)c1nc(C(=O)NCC2(O)CCC2)sc1-c1cnc(NC(C)(C)C)cc1C(F)(F)F [Example 134, (S)-5-(6-(tert-Butylamino)-4-(trifluoromethyl)pyridin-3-yl)-N-((1-hydroxycyclobutyl)methyl)-4-(2-methylpyrrolidine-1-carbonyl)thiazole-2-carboxamide] |
| 92* % | 58 nM | 1.4 nM | – | – | – | CC[C@H](Nc1cc(C(F)F)c(-c2sc(C(=O)N[C@@H]3CCC[C@H]3O)nc2C(=O)N2CCC[C@@H]2C)cn1)C(F)(F)F [Example 231, 5-[4-(Difluoromethyl)-6-[[(1S)-1-(trifluoromethyl)propyl]amino]-3-pyridyl]-N-[(1R,2R)-2-hydroxycyclopentyl]-4-[(2S)-2-methylpyrrolidine-1-carbonyl]thiazole-2-carboxamide] |
| 82* % | 32 nM | 2.6 nM | – | – | – | C[C@H](Nc1cc(C(F)F)c(-c2sc(C(=O)N[C@@H](C)C(C)(C)O)nc2C(=O)N2CC(F)(F)C[C@@H]2C)cn1)C1CC1 [Example 193, 5-(6-(((S)-1-Cyclopropylethyl)amino)-4-(difluoromethyl)pyridine-3-yl)-4-((S)-4,4-difluoro-2-methylpyrrolidine-1-carbonyl)-N—((S)-3-hydroxy-3-methylbutan-2-yl)thiazole-2-carboxamide] |
| – | – | 0.37 nM | – | 105% | 25 nM | C[C@H]1CCCN1C(=O)c1nc(C(=O)N[C@H]2CC[C@H](O)C2)sc1-c1cnc(NC(C)(C)C)cc1C(F)(F)F [Example 361, 5-[6-(tert-Butylamino)-4-(trifluoromethyl)-3-pyridyl]-N-[(1S,3S)-3-hydroxycyclopentyl]-4-[(2S)-2-methylpyrrolidine-1-carbonyl]thiazole-2-carboxamide] |
| – | – | 5.7 nM | – | 105% | 29 nM | CC[C@H](Nc1cc(C(F)F)c(-c2sc(C(=O)NC3CCC3O)nc2C(=O)N2CCC[C@@H]2C)cn1)C(F)(F)F (stereo partly drawn) [Example 375, 5-(4-(Difluoromethyl)-6-(((S)-1,1,1-trifluorobutan-2-yl)amino)pyridin-3-yl)-N-(trans-2-hydroxycyclobutyl)-4-((S)-2-methylpyrrolidine-1-carbonyl)thiazole-2-carboxamide] |
| – | – | 5.7 nM | – | 103% | 40 nM | C[C@H]1CCCN1C(=O)c1nc(C(=O)NC(C)(C)C(C)(C)O)sc1-c1cnc(NC(C)(C)C)cc1C(F)(F)F [Example 342, 5-[6-(tert-Butylamino)-4-(trifluoromethyl)-3-pyridyl]-N-(2-hydroxy-1,1,2-trimethyl-propyl)-4-[(2S)-2-methylpyrrolidine-1-carbonyl]thiazole-2-carboxamide] |

| Compound | RORγt (FL) Reporter Assay B or C, % inhibition (value marked *) (full-length human RORγt; Conditions B or C) | IC50 (full-length human RORγt; Conditions B or C) | Kd [1] | RORγt (FL) Reporter Assay B or C, % inhibition (value marked ***) (full-length human RORγt; Conditions B or C, marked ***: footnote not given) | inhibition at 3 µM (full-length human RORγt) | IC50 (full-length human RORγt) |
| --- | --- | --- | --- | --- | --- | --- |
| O=C(N[C@@H]1CCC[C@H]1O)c1nc(C(=O)N2C3CCC2CC3)c(-c2cnc(N[C@@H](C3CC3)C(F)(F)F)cc2C(F)F)s1 [Example 439, 4-((1s,4s)-7-Azabicyclo[2.2.1]heptane-7-carbonyl)-5-[6-[[(1S)-1-cyclopropyl-2,2,2-trifluoro-ethyl]amino]-4-(difluoromethyl)-3-pyridyl]-N-[(1R,2R)-2-hydroxycyclopentyl]thiazole-2-carboxamide] | – | – | 0.27 nM | – | 102% | 10 nM |
| CC[C@H](Nc1cc(C(F)(F)F)c(-c2sc(C(=O)NCC(C)(C)O)nc2C(=O)N2CC(F)(F)C[C@@H]2C)cn1)C(F)(F)F [Example 102, 4-((S)-4,4-Difluoro-2-methylpyrrolidine-1-carbonyl)-N-(2-hydroxy-2-methylpropyl)-5-(6-(((S)-1,1,1-trifluorobutan-2-yl)amino)-4-(trifluoromethyl)pyridin-3-yl)thiazole-2-carboxamide] | 116* % | 17 nM | 0.99 nM | – | – | – |
